Data reported in PubChem BioAssay (NCI).
Values joined by “and” are separate entries in the source; they are usually repeats but may differ in a detail not shown here. Equal entries are not always repeated.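 48-hour exposure; five concentrations; linearly interpolated endpoints. GI50 = concentration required for 50% inhibition of growth. TGI marks complete inhibition of growth.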

Legend:
Assay in all cases: NCI-60 cell line screen, 48 h
BT-549 breast = system: BT-549 breast
HCT-15 colon = system: HCT-15 colon
HL-60(TB) leukemia = system: HL-60(TB) leukemia
KM12 colon = system: KM12 colon
MOLT-4 leukemia = system: MOLT-4 leukemia
NCI-H226 lung = system: NCI-H226 lung
OVCAR-4 ovarian = system: OVCAR-4 ovarian
OVCAR-8 ovarian = system: OVCAR-8 ovarian
M14 melanoma = system: M14 melanoma
SK-MEL-28 melanoma = system: SK-MEL-28 melanoma

| SMILES | GI50 (BT-549 breast) | TGI (BT-549 breast) | GI50 (HCT-15 colon) | TGI (HCT-15 colon) | GI50 (HL-60(TB) leukemia) | TGI (HL-60(TB) leukemia) | GI50 (KM12 colon) | TGI (KM12 colon) | GI50 (MOLT-4 leukemia) | TGI (MOLT-4 leukemia) | GI50 (NCI-H226 lung) | TGI (NCI-H226 lung) | GI50 (OVCAR-4 ovarian) | TGI (OVCAR-4 ovarian) | GI50 (OVCAR-8 ovarian) | TGI (OVCAR-8 ovarian) | GI50 (M14 melanoma) | TGI (M14 melanoma) | GI50 (SK-MEL-28 melanoma) | TGI (SK-MEL-28 melanoma) |
| --- | --- | --- | --- | --- | --- | --- | --- | --- | --- | --- | --- | --- | --- | --- | --- | --- | --- | --- | --- | --- |
| COc1cc(N2C(=O)[C@H](Cl)C2c2ccc(SC)cc2)cc(OC)c1OC (stereo partly drawn) | 0.0989 µM | 0.748 µM | 0.047 µM | > 100 µM | 0.142 µM | 0.703 µM | 0.0473 µM | 20.3 µM | 0.284 µM | > 100 µM | 0.37 µM | > 100 µM | 0.0647 µM | > 100 µM | 0.226 µM | > 100 µM |  |  |  |  |
| O=C(Nc1sc2c(c1C(=O)O)CCCC2)c1ccco1 | > 50 µM | > 50 µM | 30.6 µM | > 50 µM | > 50 µM | > 50 µM | 29.5 µM | > 50 µM | > 50 µM | > 50 µM |  |  |  |  | > 50 µM | > 50 µM | > 50 µM | > 50 µM | > 50 µM | > 50 µM |
| c1ccc2c(c1)[nH]c1c2nc2ccccn21 |  |  |  | > 100 µM | 42.8 µM and > 100 µM | > 100 µM |  | > 100 µM |  | > 100 µM |  | > 100 µM |  | > 100 µM |  | > 100 µM |  | > 100 µM |  | > 100 µM |
| CC(=O)[CH-]C(C)=O.CC(=O)[CH-]C(C)=O.[O-]c1ccccc1.[O-]c1ccccc1.[Ti+4] |  |  | > 100 µM | > 100 µM | > 100 µM | > 100 µM | > 100 µM | > 100 µM | > 100 µM | > 100 µM | > 100 µM | > 100 µM | > 100 µM | > 100 µM | > 100 µM | > 100 µM |  |  | > 100 µM | > 100 µM |
| Cc1cc(Cl)ccc1NC(=O)CCCC(=O)C1C/C(=N/O)CC/C1=N\O (stereo not drawn) |  |  |  | > 100 µM |  | > 100 µM |  | > 100 µM |  | > 100 µM |  | > 100 µM |  | > 100 µM |  | > 100 µM |  | > 100 µM |  | > 100 µM |
| O=c1c(Cc2ccc3c(c2)OCO3)nnc2sc(-c3cc(F)c(Cl)cc3Cl)nn12 | 27.4 µM | 56 µM | 70.6 µM | > 100 µM |  |  | 35.6 µM | > 100 µM | 36 µM | > 100 µM | 85.6 µM | > 100 µM | 59.2 µM | > 100 µM | 36.9 µM | > 100 µM | > 100 µM | > 100 µM | 32.2 µM | > 100 µM |
| Cc1n[nH]c2ccccc2c1=O |  | > 100 µM |  | > 100 µM |  |  |  | > 100 µM |  | > 100 µM |  | > 100 µM |  | > 100 µM |  | > 100 µM |  | > 100 µM |  | > 100 µM |
| Cn1c(=O)oc2cc(C3CCC(=O)N3Cc3csc(-c4ccccc4)n3)ccc21 (stereo not drawn) |  |  |  | > 100 µM |  | > 100 µM |  | > 100 µM |  | > 100 µM |  | > 100 µM |  | > 100 µM |  | > 100 µM |  | > 100 µM |  | > 100 µM |
